The results in this text go back to patent US20220264923A1, “Taste Modifying Product” (Firmenich SA, priority 2011, published 2022).

The experiment in a line: Umami effect of pure amide in pure water, panel versus MSG. Particulars: amide at 20ppm in mineral water vs 0.05% MSG; RUI=(umami intensity of the amide)/(umami intensity of MSG)*10; average of 5-10 trained panelists. Format: in vivo. The protocol: The amides were evaluated at 20ppm in mineral water in comparison with 0.05% monosodium glutamate (MSG). […] The Relative umami intensity (RUI) was calculated as follows: […] The following table gives the average of the notes obtained from all panelists.
`COc1ccc(CCNC(=O)/C=C/c2ccc(OC)c(OC)c2)cc1` [Amide 1, (E)-3-(3,4-dimethoxyphenyl)-N-(4-methoxyphenethyl)acrylamide]: the “Relative umami intensity (RUI)” value is listed as 5.6. In the case of `COc1ccc(/C=C/C(=O)NCCc2ccccc2)cc1OC` [Amide 2] it was 3.8; in that of `COc1ccc(/C=C/C(=O)NCCc2ccc(OC)c(OC)c2)cc1OC` [Amide 3], 3.3; in that of `COc1cccc(CCNC(=O)/C=C/c2ccc(OC)c(OC)c2)c1` [Amide 4, (E)-3-(3,4-dimethoxyphenyl)-N-(3-methoxyphenethyl)acrylamide], 10.2. In the case of `COc1ccccc1CCNC(=O)/C=C/c1ccc(OC)c(OC)c1` [Amide 5] it was 3.2; in that of `COc1cc(CCNC(=O)/C=C/c2ccc(OC)c(OC)c2)cc(OC)c1` [Amide 6], 3.7; in that of `CCOc1cccc(CCNC(=O)/C=C/c2ccc(OC)c(OC)c2)c1` [Amide 7, (E)-3-(3,4-dimethoxyphenyl)-N-(3-ethoxyphenethyl)acrylamide], 9.8. In the case of `CCCOc1cccc(CCNC(=O)/C=C/c2ccc(OC)c(OC)c2)c1` [Amide 8, (E)-3-(3,4-dimethoxyphenyl)-N-(3-propoxyphenethyl)acrylamide], the “Relative umami intensity (RUI)” value is given as 9.9. The value for `COc1ccc(/C=C/C(=O)NCCc2ccc(OC(C)C)cc2)cc1OC` [Amide 9, (E)-3-(3,4-dimethoxyphenyl)-N-(4-isopropoxy-phenethyl)acrylamide] was 6.5. In the case of `CCc1ccc(CCNC(=O)/C=C/c2ccc(OC)c(OC)c2)cc1` [Amide 10, (E)-3-(3,4-dimethoxyphenyl)-N-(4-ethylphenethyl)acrylamide] it was 11.5. On to `COc1ccc(/C=C/C(=O)NCCc2ccc(C)c(C)c2)cc1OC` [Amide 11, (E)-3-(3,4-dimethoxyphenyl)-N-(3,4-dimethylphenethyl)acrylamide], for which the “Relative umami intensity (RUI)” value came out at 13.3. The value for `COc1ccc(/C=C/C(=O)NCCc2ccc(C(C)C)cc2)cc1OC` [Amide 12, (E)-3-(3,4-dimethoxyphenyl)-N-(4-isopropylphenethyl)acrylamide] was 5.9. `COc1ccc(/C=C/C(=O)NCCc2ccc(OC)c(OC)c2)cc1` [Amide 14]: the “Relative umami intensity (RUI)” value was 3.8. In the case of `COc1ccc(/C=C/C(=O)NCCc2cccc(C)c2)cc1OC` [Amide 17, (E)-3-(3,4-dimethoxyphenyl)-N-(3-methylphenethyl)acrylamide] it was 12.1.
